Experiments:
CHL = assay: Cell growth (Cell Titer-Glo viability), CHL; assay type: cell-based, Chinese hamster; conditions: Cricetulus griseus; CHL Chinese hamster lung cell, 72 hrs; read-out: GI50
CHO = assay: Cell growth (Cell Titer-Glo viability), CHO; assay type: cell-based, Chinese hamster; conditions: Cricetulus griseus; CHO Chinese hamster ovary cell, 72 hrs; read-out: GI50
A431 = assay: Growth of cancer cells (Cell Titer-Glo viability), A431; assay type: cell-based; conditions: Homo sapiens, A-431; A431 (wild-type EGFR), 72 hrs; read-out: GI50
A549 = assay: Growth of cancer cells (Cell Titer-Glo viability), A549; assay type: cell-based; conditions: Homo sapiens; A549 (wild-type EGFR), 72 hrs
BaF3-FL-EGFR-T790M-L858R = assay: Cell growth (Cell Titer-Glo viability), BaF3-FL-EGFR-T790M-L858R; assay type: cell-based; conditions: Mus musculus; BaF3-FL-EGFR-T790M-L858R (EGFR T790M/L858R mutant kinase), 72 hrs
Method: By testing the effect of the novel kinase inhibitors on the proliferation of cancer cells, the selectivity of the compounds of the present disclosure in inhibiting the proliferation of cancer cells was further assessed. […]
(§1) The number of viable cells was determined quantitatively by a microplate reader using Cell Titer-Glo® (Promega, US) chemiluminescence cell viability assay kit.

BaF3-NPM-ALK = assay: Cell growth (Cell Titer-Glo viability), BaF3-NPM-ALK; assay type: cell-based; conditions: Mus musculus; BaF3-NPM-ALK (stably expressing ALK kinase), 72 hrs
BaF3-TEL-ALK = assay: Cell growth (Cell Titer-Glo viability), BaF3-TEL-ALK; assay type: cell-based; conditions: Mus musculus; BaF3-TEL-ALK (stably expressing ALK kinase), 72 hrs
How it was run: (§2)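 Mouse BaF3 cells retrovirally transduced with human kinase fused to N-terminal TEL fragment, then IL-3 withdrawn so proliferation depends on the transgene. HCC827 carries EGFR del19 and NCI-H3255 EGFR L858R. Viable cells were quantified by CellTiter-Glo chemiluminescence on a microplate reader.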

NCI-H3122 = assay: Growth of cancer cells (Cell Titer-Glo viability), NCI-H3122; assay type: cell-based; conditions: Homo sapiens; NCI-H3122 (expressing ALK gene), 72 hrs; read-out: GI50
BaF3-ALK-F1174L = assay: Cell growth (Cell Titer-Glo viability), BaF3-ALK-F1174L; assay type: cell-based; conditions: Mus musculus; BaF3-ALK-F1174L (mutant ALK F1174L kinase), 72 hrs
How it was run: as §2

BaF3 = assay: Cell growth (Cell Titer-Glo viability), BaF3; assay type: cell-based; conditions: BaF3 mouse primary B cell, 72 hrs
NCI-H1975 = assay: Growth of cancer cells (Cell Titer-Glo viability), NCI-H1975; assay type: cell-based; conditions: Homo sapiens; NCI-H1975 (EGFR L858R/T790M double mutant), 72 hrs
How it was run: (§3)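 Cells are counted as viable by CellTiter-Glo chemiluminescence. Murine BaF3 lines depend on a stably transfected TEL-fused kinase after IL-3 withdrawal, and the NSCLC lines express mutant EGFR.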

NCI-H2122 = assay: Growth of cancer cells (Cell Titer-Glo viability), NCI-H2122; assay type: cell-based; conditions: Homo sapiens; NCI-H2122 (wild-type EGFR), 72 hrs
NCI-H2228 = assay: Growth of cancer cells (Cell Titer-Glo viability), NCI-H2228; assay type: cell-based; conditions: Homo sapiens; NCI-H2228 (wild-type ALK), 72 hrs
PC-9 = assay: Growth of cancer cells (Cell Titer-Glo viability), PC-9; assay type: cell-based; conditions: Homo sapiens; PC-9 (EGFR delE746_A750 mutant), 72 hrs
How it was run: as §3

BaF3-TEL-INSR = assay: Cell growth (Cell Titer-Glo viability), BaF3-TEL-INSR; assay type: cell-based; conditions: Mus musculus; BaF3-TEL-INSR (stably expressing INSR protein), 72 hrs
Source text: (§4) By testing the effect of the novel kinase inhibitors on the proliferation of cancer cells, the selectivity of the compounds of the present disclosure in inhibiting the proliferation of cancer cells was further assessed. In this example, human non-small cell lung cancer cell NCI-H1975 (expressing EGFR L858R/T790M double mutant gene), human skin squamous carcinoma cell A431 (expressing wild-type EGFR gene), non-small cell lung cancer NCI-H3255 (expressing EGFR L858R mutant gene), non-small cell lung cancer cell NCI-H3122 (expressing ALK gene), human non-small cell lung cancer cell A549 (expressing wild-type EGFR gene), human non-small cell lung cancer cell NCI-H2122 (expressing wild-type EGFR gene), human non-small cell lung cancer cell NCI-H460 (expressing wild-type EGFR gene), human non-small cell lung cancer cell PC-9 (expressing EGFR delE746_A750 mutant gene), Chinese hamster ovary cell CHO (Cricetulus griseus, hamster, Chinese, ovary), Chinese hamster lung cell CHL, human non-small cell lung cancer cell HCC827 (expressing mutant EGFR del19 gene), human lung adenocarcinoma cell HCC4006 (expressing mutant EGFR del19 gene), human non-small cell lung cancer cell NCI-H2228 (expressing wild-type ALK gene), and mouse primary B cell BaF3 were used, and the above cells were all purchased from ATCC (US). In addition, mouse BaF3-TEL-ALK (stably expressing ALK kinase), mouse BaF3-ALK-F1174L (stably expressing mutant ALK F1174L kinase), mouse BaF3-NPM-ALK (stably expressing ALK kinase), mouse BaF3-TEL-EGFR (stably expressing EGFR kinase), mouse BaF3-TEL-EGFR-T790M (stably expressing EGFR T790M mutant kinase), mouse BaF3-FL-EGFR-Del19 (stably expressing EGFR delE746_A750 mutant kinase), mouse BaF3-TEL-EGFR-L858R (stably expressing EGFR L858R mutant kinase), mouse BaF3-FL-EGFR-T790M-L858R (stably expressing EGFR T790M/L858R mutant kinase), mouse BaF3-TEL-INSR (stably expressing INSR protein), mouse BaF3-TEL-IGF1R (stably expressing IGF1R Protein), mouse BaF3-EML4-ALK (stably expressing EML4-ALK Protein), mouse BaF3-TEL-JAK3 (stably expressing JAK3 kinase protein), mouse BaF3-TEL-CSF1R (stably expressing CSF1R protein), and mouse BaF3-TEL-ALK-F1196M (stably expressing ALK F1196M mutant kinase) were also used in this example. The above cell lines were all established by our laboratory via the following process: kinase proteins or protein domain sequences of human ALK, ALK F1174L, EGFR, EGFR T790M, EGFR delE746_A750, EGFR L858, EGFR T790M/L858R, INSR, IGF1R, EML4-ALK, JAK3, CSF1R, ALK F1196M were amplified respectively by PCR, and were respectively inserted into MSCV-Puro vector (Clontech) with N-terminal TEL fragments and/or NPM fragments and/or TPR fragments; the resultants were stably transfected into mouse BaF3 cells by the means of retrovirus, and the IL-3 growth factors were removed, and eventually the ALK, ALK F1174L, EGFR, EGFR T790M, EGFR delE746_A750, EGFR L858, EGFR T790M/L858R, INSR, IGF1R, EML4-ALK, JAK3, CSF1R, ALK F1196M-transferred protein dependent cell lines were obtained.
as §1

BaF3-TEL-ALK-F1196M = assay: Cell growth (Cell Titer-Glo viability), BaF3-TEL-ALK-F1196M; assay type: cell-based; conditions: Mus musculus; BaF3-TEL-ALK-F1196M (ALK F1196M mutant kinase), 72 hrs
Source text: By testing the effect of the novel kinase inhibitors on the proliferation of cancer cells, the selectivity of the compounds of the present disclosure in inhibiting the proliferation of cancer cells was further assessed. In this example, human non-small cell lung cancer cell NCI-H1975 (expressing EGFR L858R/T790M double mutant gene), human skin squamous carcinoma cell A431 (expressing wild-type EGFR gene), non-small cell lung cancer NCI-H3255 (expressing EGFR L858R mutant gene), non-small cell lung cancer cell NCI-H3122 (expressing ALK gene), human non-small cell lung cancer cell A549 (expressing wild-type EGFR gene), human non-small cell lung cancer cell NCI-H2122 (expressing wild-type EGFR gene), human non-small cell lung cancer cell NCI-H460 (expressing wild-type EGFR gene), human non-small cell lung cancer cell PC-9 (expressing EGFR delE746_A750 mutant gene), Chinese hamster ovary cell CHO (Cricetulus griseus, hamster, Chinese, ovary), Chinese hamster lung cell CHL, human non-small cell lung cancer cell HCC827 (expressing mutant EGFR del19 gene), human lung adenocarcinoma cell HCC4006 (expressing mutant EGFR del19 gene), human non-small cell lung cancer cell NCI-H2228 (expressing wild-type ALK gene), and mouse primary B cell BaF3 were used, and the above cells were all purchased from ATCC (US). […]
as §1

HCC827 = assay: Growth of cancer cells (Cell Titer-Glo viability), HCC827; assay type: cell-based; conditions: Homo sapiens; HCC827 (mutant EGFR del19), 72 hrs
How it was run: as §2

NCI-H3255 = assay: Growth of cancer cells (Cell Titer-Glo viability), NCI-H3255; assay type: cell-based; conditions: Homo sapiens; NCI-H3255 (EGFR L858R mutant), 72 hrs
Source text: as §4, §1

BaF3-TEL-EGFR = assay: Cell growth (Cell Titer-Glo viability), BaF3-TEL-EGFR; assay type: cell-based; conditions: Mus musculus; BaF3-TEL-EGFR (stably expressing EGFR kinase), 72 hrs
Source text: as §4, §1

[1] = test system: EGFR protein (wild-type EGFR, A549); assay: Effect on signaling pathway in cells, A549; assay type: cell-based, human; conditions: control at 1 μM, 4 h, compared with Compound 1 (little effect)
Source text: In four cell lines (all purchased from ATCC) including non-small cell lung cancer cell line A549 (expressing wild-type EGFR gene), non-small cell lung cancer cell line H1975 (expressing EGFR L858R/T790M double mutant gene), non-small cell lung cancer cell line H3255 (expressing EGFR L858R mutant gene) and non-small cell lung cancer cell line PC-9 (expressing EGFR delE746_A750 mutant gene), the effect of Compound 1 on EGFR or other protein kinases related to signaling pathways of EGFR such as Stat3, AKT, ErK, eIF4E, 4EBP1, P70S6K was assessed by assaying a number of cellular biochemical and functional endpoints. […] The effect of Compound 1 on phosphorylation of Stat3Y705, AKT T308, AKT 5473, Erk T202/204, EGFR Y1068, P70S6K Thr389, eIF4E Ser209, Erk T202/204, 4EBP1 (Thr37/46) in these cell lines was assayed (FIGS. 1a to 1d).

HCC4006 = assay: Growth of cancer cells (Cell Titer-Glo viability), HCC4006; assay type: cell-based; conditions: Homo sapiens; HCC4006 (mutant EGFR del19), 72 hrs
Source text: as §4, §1

NCI-H460 = assay: Growth of cancer cells (Cell Titer-Glo viability), NCI-H460; assay type: cell-based; conditions: Homo sapiens; NCI-H460 (wild-type EGFR), 72 hrs
Source text: as §4, §1

BaF3-TEL-EGFR-T790M = assay: Cell growth (Cell Titer-Glo viability), BaF3-TEL-EGFR-T790M; assay type: cell-based; conditions: Mus musculus; BaF3-TEL-EGFR-T790M (EGFR T790M mutant kinase), 72 hrs
How it was run: as §2

| SMILES | GI50 (BaF3-NPM-ALK) [nM] | GI50 (BaF3-TEL-ALK) [nM] | GI50 (NCI-H3122) [nM] | GI50 (BaF3) [nM] | GI50 (NCI-H1975) [nM] | GI50 (NCI-H2122) [nM] | GI50 (NCI-H2228) [nM] | GI50 (PC-9) [nM] | GI50 (BaF3-TEL-INSR) [nM] | GI50 (BaF3-TEL-ALK-F1196M) [nM] | other results |
| --- | --- | --- | --- | --- | --- | --- | --- | --- | --- | --- | --- |
| C=CC(=O)Nc1cc(Nc2ncc(Cl)c(Nc3ccccc3S(=O)(=O)C(C)C)n2)c(OC)cc1N1CCN(C(C)C)CC1 [Compound 11, N-(5-(5-chloro-4-(2-(isopropylsulfonyl)phenylamino)pyrimidin-2-ylamino)-2-(4-isopropylpiperazin-1-yl)-4-methoxyphenyl)acrylamide] | < 0.3 | < 3 | < 0.3 | 450 | 25 | 190 | < 3 | 24 |  |  | GI50 (CHL): 1100 nM; GI50 (CHO): 1300 nM; GI50 (A431): 140 nM; GI50 (A549): 210 nM; GI50 (BaF3-FL-EGFR-T790M-L858R): 2 nM; GI50 (BaF3-ALK-F1174L): 530 nM |
| C=CC(=O)Nc1cc(Nc2ncc(F)c(Nc3ccccc3S(=O)(=O)C(C)C)n2)c(OC)cc1N1CCN(CC)CC1 [Compound 82, N-(2-(4-ethylpiperazin-1-yl)-5-(5-fluoro-4-(2-(isopropylsulfonyl)phenylamino)pyrimidin-2-ylamino)-4-methoxyphenyl)acrylamide] | 1 | 1 | 2 | 3000 | 48 |  |  | 14 | 7 | 6 |  |
| C=CC(=O)Nc1cc(Nc2ncc(Br)c(Nc3ccccc3S(=O)(=O)C(C)C)n2)c(OC)cc1N1CCN(CC)CC1 [Compound 83, N-(5-(5-bromo-4-(2-(isopropylsulfonyl)phenylamino)pyrimidin-2-ylamino)-2-(4-ethylpiperazin-1-yl)-4-methoxyphenyl)acrylamide] | < 0.3 | 1 | 2 | 380 | < 0.3 |  |  | 58 | < 0.3 | < 0.3 |  |
| C=CC(=O)Nc1cc(Nc2ncc(C)c(Nc3ccccc3S(=O)(=O)C(C)C)n2)c(OC)cc1N1CCN(CC)CC1 [Compound 84, N-(2-(4-ethylpiperazin-1-yl)-5-(4-(2-(isopropylsulfonyl)phenylamino)-5-methylpyrimidin-2-ylamino)-4-methoxyphenyl)acrylamide] | 2 | 1 | 2 | 6600 | 43 |  |  | 6 | 4 | 2 |  |
| C=CC(=O)Nc1cccc(Oc2nc(Nc3ccc(N4CCN(C)CC4)cc3OC)ncc2Cl)c1 [WZ4002, reference compound] | 1400 |  | 3200 |  | 21 | 5700 | 1100 | 27 |  |  | GI50 (HCC827): 1.2 nM; GI50 (NCI-H3255): 390 nM; GI50 (BaF3-TEL-EGFR): 1600 nM; effect on phosphorylation of EGFR protein and of STAT3, S6K, AKT, ERK, eIF4E [1]: behaved similarly; GI50 (HCC4006): 7.2 nM; GI50 (NCI-H460): 8100 nM; GI50 (BaF3-TEL-EGFR-T790M): 46 nM |

— patent US10350210B2, “EGFR and ALK dual inhibitor” (PRECEDO PHARMACEUTICALS CO., LTD, priority 2015, dated 2019)
